Measured values reported in US12102672B2, “Immunogenic sequences from a phage tail length tape measure protein, bacteria expressing the same and their use in treating a cancer” (INSTITUT GUSTAVE ROUSSY, priority 2017, dated 2024).
Entries after “also recorded” stand apart in the source; their conditions may differ.

Columns and labels:
[1] = tested on: MCA-205 sarcoma; test: MCA-205 sarcoma growth in FMT-treated mice, CTX plus oral gavage with E. hirae strains; type: in vivo; details: for Anti-tumor effect: summary of the characteristics of the strains, with CTX, MCA205 sarcoma; for CTX-mediated antitumor effects (MCA-205 tumor growth): FMT from BC patient 2 with no overt dysbiosis, oral gavage; for boost of CTX tumoricidal activity (MCA-205 tumor growth): dysbiotic FMT from BC patient, 3 cycles CTX 100 mg/kg, oral gavage 1.10^9 bacteria
Description: FIG. 1. Experimental setting. (A) Mice are treated with broad spectrum antibiotics (streptomycin, colistin, ampicillin and vancomycine) for 3 days before performing Fecal Microbiota Transplantation (FMT). 14 days post-FMT, MCA-205 sarcoma cell lines are inoculated in the right flank of mice (8.10^5 cells per mice). […] (B) Non FMT-treated SPF mice are used as control.
FIG. 2. Dysbiosis by FMT BC patient 1: Effectiveness of E. hirae 13144 to restore CTX-mediated antitumor effects. […] (C) Tumor growth curves of MCA-205 sarcoma in FMT-treated mice after oral gavage with strain E. hirae 13144 or NaCl as control. 2 independent experiments are depicted. (D) Overall survival of FMT-treated, MCA-205 sarcoma bearing mice treated with CTX or NaCl after oral gavage with strain E. hirae 13144. A typical survival curve is depicted for six mice per group. (E) Concatenated data of tumor sizes at day 21 post-CTX from 2 independent experiments are shown.
FIG. 3. […] (C) Tumor growth curves of MCA-205 sarcoma in FMT-treated mice after oral gavage with strain E. hirae 13144 or NaCl as control. 2 independent experiments are depicted. (D) Concatenated data of tumor sizes at day 21 post-CTX from 2 independent experiments are shown.
FIG. 4. […] Tumor growth curves of MCA-205 sarcoma in FMT-treated mice after oral gavage with strain E. hirae 13144 (A), IGR1 (B) or NaCl as control. A typical curve is depicted for six mice per group. (C) Concatenated data of tumor sizes at day 17 post-CTX from 1-2 independent experiments are shown. (D). Comparaison of various strains of E. hirae for their capacity to control tumor growth. […] EH10815 fails to work and that may be related to a mutation residing in TMP2 (see below FIG. 13B).
FIG. 5. […] (A) Tumor surface of MCA-205 sarcoma in FMT-treated mice after oral gavage with strain E. hirae 13144, IGR4, IGR7, Actinomycetes spp (Ao) and injected with 3 cycles of CTX (C) vs NaCl (N). Each dot is one mouse/tumor. (B) Tumor growth curves of MCA-205 sarcoma in SPF mice of the best group, means+SEM of tumor sizes at each time point and tumor sizes at sacrifice (C: CTX). Each dot is one mouse/tumor. Anova statistics indicating significant differences between CTX and the triple combination. (C) Tumor surface of MCA-205 sarcoma in FMT-treated mice after oral gavage with strains EH13144, IGR1, IGR11, Barnesiella or Akkermansia and injected with 3 cycles of CTX. Bacterial strains are used alive (V) or pasteurized (P). For pasteurization, bacteria are incubated 30 min at 70° C. and frozen at −80° C. at least 6 hours.
FIG. 6. […] Tumor growth curves of MCA-205 sarcoma in FMT-treated mice after oral gavage with strain E. hirae 13144 alive (A), pasteurized (B) or NaCl as control. A typical curve is depicted for six mice per group. (C) Concatenated data of tumor sizes at day 17 post-CTX from 3 independent experiments are shown.

[2] = tested on: splenic CD8+ T cells; test: IFNγ ELISpot recall assay of splenic CD8+ T cells with DCs pulsed with heat-inactivated bacteria or peptides; type: cell-based, mice; details: for memory Tc1 immune response (IFNγ spots) to BM-DC infected with EH isolates: Example 2, FIG. 10, splenic CD8+ T cells after gavage + CTX, ELISPOT at 24 hrs; for specific TC1 immune responses after restimulation with E. hirae strains loaded onto DC: Example 12, FIG. 27D, prime-boost exposure + CTX
Description: FIG. 9. Experimental immunization protocols to elucidate the immunogenicity of EH peptides. […] 5 days after the first oral gavage, mice are treated with CTX. One week post-CTX, CD8+ T cells are isolated from spleen. These CD8+ T cells are incubated with dendritic cells (DCs) pulsed with 20 μg/ml of peptides (during 1 hour) or with heat-inactivated bacteria (during 6 hours). Inactivation of bacteria consists in incubation at 65° C. during 2 hours. After 24 hours of culture, ELIspot of IFNγ is performed.
FIG. 10. Cross-reactivity between the two E. hirae 708 and 13144 species for CTL splenic reactivity. Number of IFNγ spot representing IFNγ-secreting CD8+ T cells after co-culture with DCs pre-incubated with or without heat-inactivated bacteria (708, 13144, EH17 and L. plantarum).
FIG. 13. Peptides from group 7 containing the TMP1 and TMP2 epitopes activate CD8+ T cells from spleen of mice immunized against E. hirae 13144. Number of IFNγ spot, representing IFNγ-secreting CD8+ T cells, after incubation with DCs pulsed with 13 different group of peptide (Table 6). Just group n° 1 (A) and group n° 7 (B) are shown. (C, E) Number of IFNγ spot, representing IFNγ-secreting CD8+ T cells, after incubation with DCs pulsed with 4 peptides belong to group n° 7 (in table 7). (D) Sequence alignment of TMP1 and TMP2 of EH10815 (SEQ ID Nos: 228 and 229 respectively) compared to EH13144 (fragments of SEQ ID NO: 1) at the level of immunogenic peptides. Amino acid sequence […] corresponds to SEQ ID No: 13. Amino acid sequence […] corresponds to SEQ ID No: 217. Amino acid sequence […] corresponds to SEQ ID Nos: 14. Amino acid sequence AlIEFIKGL corresponds to SEQ ID No: 218. (E) In vitro reactivity of splenic CTL in a recall response to TMP1 and TMP2 as well as Group7 after in vivo immunization with other strains of EH.
A and C. Experimental setting. […] D-E. Ex vivo recall assays. […] Each dot represents one mouse.

[3] = tested on: colon mucosae; test: Colon inflammatory infiltrates (HES staining) after E. hirae gavage and CTX; type: in vivo, mice; details: for inflammatory infiltrates of colon mucosae: mice without tumor, oral gavages + CTX, versus without commensals
Description: FIG. 11. Effects of EH on gut inflammation and role of CD8+ T cells in this inflammation: EH-specific CTL amplified in the mLN may return into the lamina propria. (A) Experimental setting. […] Then, we performed oral gavage with E. hirae (708 or 13144) and anti-CD8 injection (200 μg per mice) every three days for a total of 4 gavages/injections. 5 days after the first oral gavage, mice are treated with CTX. One week post-CTX, colon is removed for Hematoxylin Eosin Staining (HES). (B) Extent of inflammatory infiltrates in colon of mice colonized with E. hirae and treated with anti-CD8 ablating Abs and CTX.
FIG. 18. […] (A) Experimental setting. […] Then we performed oral gavage with E. hirae (708 or 13144) every three days for a total of 4 gavages. 5 days after the first oral gavage, mice were treated with CTX. One week post-CTX, colons are removed to be embedded in PPFE for Hematoxylin, Eosin and Safran staining (HES). (B) Extent of inflammatory infiltrates in colons of mice bearing MCA205 tumors or not and colonized with E. hirae and treated with CTX. Student t′-test statistical analyses: ** p<0.01.

| Substance | Anti-tumor effect [1] | memory Tc1 immune response (IFNγ spots) to BM-DC infected with EH isolates [2] | specific TC1 immune responses after restimulation with E. hirae strains loaded onto DC [2] | TC1 response against TMP1 in mice gavaged with the strain (IFNγ ELISpot) ([2]; Example 12, FIG. 27E) | inflammatory infiltrates of colon mucosae [3] | CTX-mediated antitumor effects (MCA-205 tumor growth) ([1]; listed as E. hirae 13144) | CTX-mediated antitumor effects (MCA-205 tumor growth) ([1]; listed as EH13144) | boost of CTX tumoricidal activity (MCA-205 tumor growth) ([1]; listed as E. hirae 13144) | boost of CTX tumoricidal activity (MCA-205 tumor growth) ([1]; listed as EH13144) | colon inflammatory lesions in tumor bearers ([3]; mice bearing MCA205 sarcoma versus naive, listed as E. hirae 13144) |
| --- | --- | --- | --- | --- | --- | --- | --- | --- | --- | --- |
| Enterococcus hirae 708 [Peptide 708, reference compound] | No | could induce memory Tc1 immune responses | failed to do so | unable to do so | more infiltrated |  |  |  |  |  |
| Enterococcus hirae strain 13144 [Peptide 13144] | Yes | could induce memory Tc1 immune responses | triggered specific TC1 immune responses |  | more infiltrated | ameliorates the CTX-mediated antitumor effects | significant | only when used alive | very effective at restoring the efficacy | markedly reduced; also recorded: prevents the gut inflammatory lesions |
